Literature values in patent US8481060B2, “Melt-coated pharmaceutical composition with fast release” (Losan Pharma GmbH, priority 2008, dated 2013).

Settings: taste-masking compound (excipient)
For `CCCCCCCCCCCCCCCCCCCCCC(=O)O` [behenic acid], the HLB is listed as −8.
For `CCCCCCCCCCCCCCCCCCC(=O)O` [nonadecane acid], the HLB is listed as −6.
In the case of `CCCCCCCCCCCCCCCCCC(=O)O` [stearic acid], the HLB is listed as −6.
For `CCCCCCCCCCCCCCCC(=O)O` [palmitinic acid], the HLB is given as −5.
In the case of `CCCCCCCCCCCCCCCCCCCC(=O)O` [arachinic acid], the HLB is listed as −7.
In the case of `CCCCCCCCCCCCCCCCC(=O)O` [margaric acid], the HLB is given as −6.
